These results are taken from patent US10092579B2, “Gold(I) complexes with anticancer properties and methods of use thereof” (KING FAHD UNIVERSITY OF PETROLEUM AND MINERALS, priority 2016, dated 2018).

pIC50: −log10 of the molar value. Read-outs that look alike come from different tables or passages of the source.

What all share (assay type): cell-based, human
One test relates to HeLa cancer cell line. The test can be described thus: MTT assay for anticancer activity, HeLa cells. As to conditions: read-out: IC50 against HeLa.
The subject of another test is HCT15 cancer cell line. The test can be described thus: MTT assay for anticancer activity, HCT15 cells. As to conditions: read-out: IC50 against HCT15.
For another test, the system named is A549 cancer cell line. Put plainly: MTT assay for anticancer activity, A549 cells. As to conditions: read-out: IC50 against A549.
The mark [1] stands for this setting: HeLa cells, MTT, 24 h incubation.
Where [2] appears, read: HCT15 cells, MTT, 24 h incubation.
The mark [3] stands for this setting: A549 cells, MTT, 24 h incubation.

Procedure for A549 cancer cell line: (§1) A549, HeLa and HCT15 human cancer cells were seeded and maintained in triplicate at 4×10^3 cells/well in 100 μL DMEM (Dulbecco's Modified Eagle's Medium) containing 10% FBS (Fetal Bovine Serum) in 96-wells tissue culture plate and incubated for 72 h at 37° C. 5% CO2 in air and 90% relative humidity in CO2 incubator.
(§2) The resultant cultures were incubated for 24 h. The medium of wells was discarded. 100 μL DMEM containing MTT (3-(4,5-Dimethylthiazol-2-Yl)-2,5-Diphenyltetrazolium Bromide) (5 mg/mL) was added to the wells and incubated in CO2 incubator at 37° C. in dark for 4 h. After incubation, a purple colored formazan (artificial chromogenic dye, product of the reduction of water insoluble tetrazolium salts e.g., MMT by dehydrogenases and reductases) in the cells is produced and appeared as dark crystals in the bottom of the wells. The medium of culture was discarded from each well carefully to avoid disruption of monolayer. 100 μL of Dimethylsulphoxide (DMSO) was added in each well. The solution was thoroughly mixed in the wells to dissolve the formazan crystals which ultimately result into a purple solution. The absorbance of the 96-wells plate was taken at 570 nm with Lab systems Multiskan EX-Enzyme-linked immunosorbent assay (EX-ELISA) reader against a reagent blank. All data presented are mean±standard error of the mean (SEM).
Procedure for HCT15 cancer cell line: as §1, §2
Procedure for HeLa cancer cell line: as §1, §2

With `[Cl][Au].[Cl][Au].c1ccc(P(CP(c2ccccc2)c2ccccc2)c2ccccc2)cc1` [[(DPPM)(AuCl)2](A0), [μ-Bis(diphenylphosphino)methane]dichlorodigold(I)], the pIC50 in the test on HeLa cancer cell line (setting [1]) was 3.96; in the test with HCT15 cancer cell line (setting [2]) it was 3.83; in the test on A549 cancer cell line (setting [3]) it was 3.86.

`N.N.[Cl][Pt][Cl]` [cisplatin]: the pIC50 in the test on HeLa cancer cell line (setting [1]) is 4.71; in the test with HCT15 cancer cell line (setting [2]), 4.53; with A549 cancer cell line (setting [3]) it was 4.38.

For the molecule “tri-tert-butyl-phosphine gold(I) dibenzyldithiocarbamate [Complex (A1)]”, the pIC50 was 4.59 in the test with HeLa cancer cell line, 4.03 with HCT15 cancer cell line and 4.01 with A549 cancer cell line.
